Experimental data as given in patent publication US20240109925A1, “Enhanced Anti-Proliferative and Antitumor Immune Effects of Mitochondria-Targeted Hydroxyurea” (The Medical College of Wisconsin, Inc., priority 2021, published 2024).
“Also recorded” adds a separate entry of the source. Like-named read-outs stand apart in the source and are kept apart here.

Assays:
Type in all cases: cell-based
[1] = tested on: HCT116 human colon cancer cells; test: Cell proliferation (cell confluence), IncuCyte Live-Cell Analysis system; conditions: for Cell Confluence (%): when control cells reached ~90% confluence, n = 4; for IC50: Homo sapiens, HCT-116, at ~90% confluence of control; for inhibition of proliferation of HCT116 cells / IC50: HCT116
Excerpt: FIG. 1. Effects of HU and Mito-HUs on proliferation of HCT116 human colon cancer cells (A) Effects of HU and Mito-HUs on the proliferation of HCT116 cells were monitored in the IncuCyte Live-Cell Analysis system. The IncuCyte Analyzer provides real-time updates on cell confluence, based on segmentation of high definition-phase contrast images. Representative cell images were shown as segmentation mask illustrated in brown when control cells reached 90% confluence (vertical solid black line). (B) The IC50 values were determined at the point at which control cells reached ˜90% confluence (vertical solid black line). Relative cell confluence (control is taken as 100%) is plotted against concentration. Dashed lines represent the fitting curves used to determine the IC50 values as indicated. Data shown are the means & SD.
(§1) The following cell lines were obtained from the American Type Culture Collection (Manassas, VA), where they were regularly authenticated: HCT116 (ATCC Cat #CRL-247, human colon cancer cells) and MiaPaCa-2 (ATCC Cat #CRL-1420, human pancreatic cancer cells). All cells were cultured in a humidified incubator at 37° C. and 5% carbon dioxide. HCT116 cells were maintained in RPMI 1640 medium (Thermo Fisher Scientific, Cat #11875), supplemented with 10% fetal bovine serum. MiaPaCa-2 cells were maintained in Dulbecco's Modified Eagle Medium (Thermo Fisher Scientific, Waltham, MA; Cat #11965) supplemented with 10% fetal bovine serum. All cells were stored in liquid nitrogen and used within 20 passages after thawing.
(§2) The IncuCyte Live-Cell Analysis system (Essen Bioscience Inc., Ann Arbor, MI) was used to monitor cell proliferation (Cheng et al., 2013, 2016; Boyle et al., 2018). As shown in previous publications (Cheng et al., 2013, 2016), this imaging system is probe-free and noninvasive, and enables continuous monitoring of cell confluence over several days. The increase in the percentage of cell confluence was used as a surrogate marker of cell proliferation. In a 96-well plate, cells were plated at 1,000 cells per well in triplicates and left to adhere overnight. Cells were then treated with HU and Mito-HUs, and the cell confluency was recorded over several days in the IncuCyte Live-Cell Analysis system.

[2] = tested on: HCT116 human colon cancer cells; test: as above
[3] = tested on: MiaPaCa-2 human pancreatic cancer cells; test: Cell proliferation, IncuCyte Live-Cell Analysis system
Excerpt: FIG. 7. Effects of HU and Mito10-HU on proliferation of MiaPaCa-2 human pancreatic cancer cells; MiaPaCa-2 cells treated with HU or Mito10-HU were monitored in the IncuCyte Live-Cell Analysis system. Cell proliferation was monitored in real-time with the continuous presence of indicated treatments until the end of each experiment. Data shown are the means±SD.
as §1, §2

[4] = target: T1, mitochondrial complex III (Homo sapiens, UniProt P00156+P47985); test: Complex III-dependent oxygen consumption (OCR), Seahorse XF-96, HCT116 cells; conditions: HCT116, 24 hr
T1 construct: other: mean ± SD; HCT116, 24 hr treatment; Complex III activity (OCR, % of control); other: 0.1 μM, 24 hr, HCT116; n = 4; other: 0.5 μM, 24 hr, HCT116; other: 0.75 μM, 24 hr, HCT116; other: 1 μM, 24 hr, HCT116; Compl
Experimental: (§3) FIG. 2. Effects of HU and Mito-HUs on the oxygen consumption by mitochondrial complexes I and III (A) Dose-dependent effects of HU, Mito10-HU, Mito12-HU, Mito14-HU, Mito16-HU, and Mito20-HU on complex I- and complex III-dependent oxygen consumption were measured in HCT116 cells. HCT116 cells were treated with HU or Mito-HUs as indicated for 24 hr. Mitochondrial complex I activity (left) and complex III activity (right) were monitored by a Seahorse XF-96 analyzer. Either rotenone (complex I inhibitor) or antimycin A (complex III inhibitor) was acutely added and OCR assayed immediately. (B) The mitochondrial complex I (left) and III (right) dependent oxygen consumption (calculated as rotenone or antimycin A inhibitable OCR) are plotted against concentration of HU and Mito-HUs. Dashed lines represent the fitting curves used for determination of the IC50 values. Data shown are the means G SD.
(§4) Mitochondrial oxygen consumption was measured using the Seahorse XF-96 Extracellular Flux Analyzer (Agilent, North Billerica, MA) (Cheng et al., 2013, 2016; Boyle et al., 2018; Weinberg and Chandel, 2015). After cells were treated with HU or Mito-HUs for 24 hr, the OCR-based assessment of mitochondrial complex activities was carried out on acutely permeabilized cells in the presence of different mitochondrial substrates, i.e., pyruvate/malate for complex I and duroquinol for complex III (Cheng et al., 2016, 2019; Salabei et al., 2014; Wheaton et al., 2014). Rotenone, malonate, and antimycin A (Sigma-Aldrich, St. Louis, MO) were used as specific inhibitors of mitochondrial complexes I, II, and III, respectively. Briefly, cells that were intact after treatments were immediately permeabilized using the Seahorse XF Plasma Membrane Permeabilizer (Agilent). The mitochondrial complex I-induced OCR was assayed in mannitol and sucrose buffer (Salabei et al., 2014) containing 10 mM pyruvate and 1.5 mM malate (substrates for complex I) and 10 mM malonate (which inhibits complex II activities). The mitochondrial complex III-driven OCR was assayed in a mannitol and sucrose buffer containing 0.5 mM duroquinol (substrate for complex III) as well as […] and 10 mM malonate (which inhibit both complex I and II activities). The IC50 values were determined as previously reported (Cheng et al., 2019).

mitochondrial complex I = mitochondrial complex I (Homo sapiens, UniProt O75251+O75306+P03886); test: Complex I-dependent oxygen consumption (OCR), Seahorse XF-96, HCT116 cells; conditions: HCT116, 24 hr
Experimental: as §3, §4

[5] = read-out: IC50 proliferation of HCT116 cells

SMILES: O=C(NO)NC(=O)NCCCCCCCCCC[P+](c1ccccc1)(c1ccccc1)c1ccccc1.O=C([O-])C(F)(F)F [Mito10-HUNHTPP^+, 10-[(hydroxycarbamoyl)carbamoylamino]-decyltriphenylphosphonium trifluoroacetate]
- inhibition of proliferation of HCT116 cells [1]: inhibited HCT116 cell proliferation

SMILES: CCOC(=O)Oc1c(OC)cc(C(=O)O[C@@H]2C[C@@H]3CN4CCc5c([nH]c6cc(OC)ccc56)[C@H]4C[C@@H]3[C@H](C(=O)OC)[C@H]2OC)cc1OC [syrosingopine, reference compound]
- effect on cell proliferation, each alone (syrosingopine experiment) ([2]; Mito10-HU (5 μM) or syrosingopine (7.5 μM) independently, HCT116): minimally affected cell proliferation

SMILES: NC(=O)NOCCCC[P+](c1ccccc1)(c1ccccc1)c1ccccc1.O=C([O-])C(F)(F)F [Mito4-HU, 4-[(carbamoylamino)oxy]-butyltriphenylphosphonium trifluoroacetate]
- Cell Confluence (%) ([1]; 100 μM): 92.40%
- Cell Confluence (%) ([1]; 200 μM): 90.77%
- Cell Confluence (%) ([1]; 400 μM): 80.77%
- Cell Confluence (%) ([1]; 600 μM): 47.24%
- inhibition of proliferation of HCT116 cells ([1]; trifluoroacetate): dose-dependently inhibited proliferation; also recorded: lower than that of HU
- IC50 [1, 5]: > 600 µM
- IC50 ([1]; mean ± SD, read-out: IC50 Cell Proliferation (FIG. 1)): > 600 µM
- inhibition of proliferation of MiaPaCa-2 cells [3]: did not inhibit the proliferation

SMILES: CCCCCCCCCCONC(N)=O [Decyl-HU, decyloxyurea, reference compound]
- IC50 [1, 5]: > 600 µM

SMILES: Cc1[nH]nc(C(F)(F)F)c1Cc1sc2c(c1C(=O)N1C[C@](C)(O)CO1)c(=O)n(C)c(=O)n2C(C)C [AZD-3965, reference compound]
- antiproliferative effect, each alone (AZD-3965 experiment) ([2]; Mito10-HU (5 μM) or AZD-3965 (100 μM) independently, HCT-116): negligible antiproliferative effects

SMILES: Cc1ccc([P+](CCCCCCCCCCONC(N)=O)(c2ccc(C)cc2)c2ccc(C)cc2)cc1.O=C([O-])C(F)(F)F [Mito10-HUtriMe, 10-[(carbamoylamino)oxy]-decyl-tris-p-tolylphosphonium trifluoroacetate]
- effect on complex III-induced oxygen consumption [4]: more potently than Mito10-HU
- IC50 [1, 5]: 3.7 µM
- effect on complex I-induced oxygen consumption (mitochondrial complex I): more potently than Mito10-HU
